Patent US20260284009A1, “COMPOUNDS FOR NOS-RELATED CANCERS AND METHODS OF USE” (YISSUM RESEARCH DEVELOPMENT COMPANY OF THE HEBREW …, priority 2023, published 2026)

What was measured:
Format in all cases: cell-based, human
[1] = system: SH-SY5Y cells; test: Nitrite (Griess) assay in SH-SY5Y cells; conditions: 7-NI
Procedure: (§1) Human neuroblastoma (“NB”) SH-SY5Y cells were obtained from the American Type Culture Collection (ATCC) and maintained in Dulbecco's modified Eagle's medium (DMEM) and Ham's F-12 (1:1) supplemented with 10% fetal bovine serum, 2 mM L-glutamine, and 100 U/ml penicillin-G/[…] streptomycin in the humidified atmosphere (37° C., 5% CO2). Cells were plated onto 25 cm^2 and 75 cm^2 at a density of […] respectively for Western blotting (WB) and 1×10^5 for immunofluorescence. The SH-SY5Y cells were treated with 100 μM 7-nitroindazole (7-NI) for 24 hr. This concentration was confirmed in the dose-response experiment (FIG. 1) using an MTT viability assay.
Released NO was measured with Griess assay Kit (Sigma-Aldrich, Cat. No. 23479) using the manufacturer's instructions.
(§2) SH-SY5Y cells were plated in 6 well plates, as well as on 22 mm^2 coverslips at a density of 6.0×10^4 cells/cm^2 and transfected with 20 nM nNOS siRNA (SEQ ID NO: 4) for 24 h, with the use of Lipofectamine RNAi MAX (56530, Invitrogen) according to the manufacturer's protocol. Then cells were washed with phosphate-buffered saline (PBS) and harvested for WB and fixed for immunofluorescence.

[2] = system: SH-SY5Y cells; test: Western blot of SH-SY5Y cells (3-Ntyr, mTOR pathway proteins, synaptophysin); conditions: 100 μM 7-NI, 24 hr
Procedure: as §1
Cells were lysed in ice-cold RIPA buffer containing 50 mM Tris-HCl, 1% Nonidet P-40, 0.25% sodium deoxycholate, 150 mM NaCl, protease-, and phosphatase inhibitor cocktails, pH 7.4. After sonication, the lysates were centrifuged at 17,000 g for 30 min at 4° C., and the supernatant was collected. The protein concentrations were determined with the BCA protein assay. Proteins were resolved by SDS-PAGE, transferred to a PVDF membrane, and probed with the following antibodies: anti-pMTOR (rabbit, diluted 1:1000), anti-mTOR (rabbit, diluted 1:1000), anti-TSC2 (rabbit, diluted 1:1000), anti-nNOS (rabbit, diluted 1:1000), anti-pAKT (rabbit, diluted 1:1000), anti-AKT (rabbit, diluted 1: 1000), anti-pRPS6 (rabbit, diluted 1:1000), anti-RPS6 (mouse, diluted 1:1000), anti-synaptophysin (mouse, diluted 1:1000), anti-β-actin (rabbit, diluted 1:1000), anti-3-Nitrotyrosine (rabbit, diluted 1:5000) from Abcam. All primary antibodies, except anti-3-Nitrotyrosine, were purchased from Cell Signaling Technology. The blots were then visualized using an enhanced chemiluminescence (ECL) system.
as §2

[3] = system: U87-MG cells; test: Western blots of 3-Ntyr, CD-70, iNOS and nNOS in U87-MG cells; conditions: western blot, 100 μM 7-NI, 500 or 1000 μM L-NIL, n=3
Procedure: In FIGS. 12A-12D, for quantitative analysis data, all individual data series are presented as biological replicates (n=3) for all groups. Data are expressed as the mean±SEM.
FIG. 12A: Representative western blots of 3-Ntyr and β-actin levels in U87-MG cells following administration of the control, 0.1% DMSO (“Vehicle”), or 100 μM 7-NI (“7-NI”).
FIG. 12B: Quantitative analysis of 3-Ntyr levels for the experiments of FIG. 12A.
FIG. 12C: Representative western blots of 3-Ntyr and β-actin levels in U87-MG cells following administration of the control, 500 μM L-NIL (“L-NIL 500”), or 1000 μM L-NIL (“L-NIL 1000”).
FIG. 12D: Quantitative analysis of 3-Ntyr levels for the experiments of FIG. 12C.
In FIGS. 13A-13B, for quantitative analysis data, all individual data series are presented as biological replicates (n=3) for all groups. Data are expressed as the mean±SEM.
FIG. 13A: Representative western blots of CD-70 and β-actin levels in U87-MG cells following administration of the control, 0.1% DMSO (“Vehicle”), 100 μM 7-NI (“7-NI”), 500 μM L-NIL (“L-NIL 500”), or 1000 μM L-NIL (“L-NIL 1000”).
FIG. 13B: Quantitative analysis of CD-70 levels for the experiments of FIG. 13A.
In FIGS. 14A-14B, for quantitative analysis data, all individual data series are presented as biological replicates (n=3) for all groups. Data are expressed as the mean±SEM.
FIG. 14A: Representative western blots of iNOS and β-actin levels in U87-MG cells following administration of the control, 0.1% DMSO (“Vehicle”), 100 μM 7-NI (“7-NI”), 500 μM L-NIL (“L-NIL 500”), or 1000 μM L-NIL (“L-NIL 1000”).
FIG. 14B: Quantitative analysis of iNOS levels for the experiments of FIG. 14A.
In FIGS. 15A-15B, for quantitative analysis data, all individual data series are presented as biological replicates (n=3) for all groups. Data are expressed as the mean±SEM.
FIG. 15A: Representative western blots of nNOS and β-actin levels in U87-MG cells following administration of the control, 0.1% DMSO (“Vehicle”), 100 μM 7-NI (“7-NI”), 500 μM L-NIL (“L-NIL 500”), or 1000 μM L-NIL (“L-NIL 1000”).
FIG. 15B: Quantitative analysis of nNOS levels for the experiments of FIG. 15A.

[4] = system: U87-MG cells; test: Griess assay, nitrite and nitrate content; conditions: L-NIL alone, compared to the control (summary statement)
Procedure: In a particular example, in vitro and in vivo experiments were performed using U87-MG cells and U87-MG-xenografted mice, respectively, as a glioblastoma model.

[5] = system: CD70; test: CD70 expression level in U87-MG cells; conditions: both the lower and higher doses, compared to the control; not statistically significant (FIG. 13)

Structure (SMILES)	nitrite content (Griess assay) [1]	3-Ntyr levels [2]	levels of TSC-2 [2]	levels of synaptophysin [2]	phosphorylation of RPS6 [2]	phosphorylation of mTOR [2]	phosphorylation of protein kinase-B (AKT) [2]	3-Ntyr (nitrotyrosine) levels [3]	cluster of differentiation 70 (CD-70) levels [3]	inducible nitric oxide synthase (iNOS) levels [3]	neuronal nitric oxide synthase (nNOS) levels [3]	total nitrate and nitrite content [4]	expression level of CD70 [5]
O=[N+]([O-])c1cccc2cn[nH]c12 [7-NI, 7-nitroindazole]	dramatic reduction	halved	significant increase	significantly decreased	reduced	decrease	reduced	significant decrease	did not lead to significant changes	did not lead to significant changes	did not lead to significant changes	–	–
CC(=N)NCCCC[C@H](N)C(=O)O [L-NIL, N^6-(1-iminoethyl)-L-lysine]	–	–	–	–	–	–	–	did not result in a significant decrease	did not lead to significant changes	did not lead to significant changes	did not lead to significant changes	significantly reduced	slightly decreased
